Measured values taken from patent publication US5627194A, “Anti-viral guanidino-substituted compounds” (Allelix Biopharmaceuticals Inc., priority 1994, dated 1997).

Legend:
HSV-1, strain F = assay: Plaque reduction assay, inhibition of HSV-1 strain F replication by the compound of example 1 (Vero cells); type: cell-based, herpes simplex virus type 1; conditions: for Plaque number: Vero, 24 h pretreatment, 48 h, untreated 19
From the text: (§1) The present invention provides novel di-guanidino-substituted compounds having anti-herpesvirus activity. The term "anti-herpesvirus" as used herein refers to those compounds which inhibit replication of a member of the herpesvirus family as determined by conventional cell culture assay, such as the well established plaque reduction assay. In the context of the plaque reduction assay, for example, the anti-herpesvirus nature of a compound in accordance with the present invention is indicated by a reduction in plaque count, or a reduction in plaque size, following treatment of virally infected cells with the given compound, relative to a virally infected, untreated control.
The compound of example 1 was formulated as a 10 mM stock in water for in vitro and cell culture procedures. The stock was then diluted into buffers used for specific assays, or into cell culture media.
(§2) The following procedures were then used to determine inhibitory effects of the compound of example 1 on the replication of HSV-1, strain F. First, confluent monolayers of the African green monkey kidney cell line, Vero (ATCC 733-VR CCL 81) in 24 well cell culture plates were pretreated with specified concentrations (0 μM, 0.5 μM, 1 μM, 5 μM, 10 μM, 20 μM and 50 μM) of ALX-19 at 37° C., 5% CO2 for 24 hours. This was accomplished by diluting the stock solution of the test compound in growth medium (10% fetal bovine serum, 100 IU/ml penicillin, 100 μg/ml streptomycin and 0.02 mg/ml gentamicin in Dulbecco's MEM (DMEM)) used to overlay the monolayers.
After pretreatment with the test compound, the monolayers were overlaid with 0.1 ml of diluted virus stock at about 20 pfu/well. Virus was then allowed to absorb for 1 hours at 37° C. The virus inoculum was removed and the monolayers were overlaid with DMEM containing 2% FBS and the specified concentrations of the test compound. Virus was next allowed to replicate for 48 hours and then the monolayers were fixed and stained with a solution of 1% crystal violet in 70% ethanol:formalin:acetic acid (20:2:1). Finally, plaques (each representing a single infectious virus particule or plaque forming unit (PFU) were counted and checked microscopically. The results were as follows: […]

herpesvirus [1] = assay: Inhibition studies of herpesvirus replication by the compounds exemplified; type: cell-based; conditions: summary table, read-out: ED50 (the source's name)
Method: as §2
(§3) After pretreatment with the test compound, the monolayers were overlaid with 0.1 ml of diluted virus stock at about 20 pfu/well. Virus was then allowed to absorb for 1 hours at 37° C. The virus inoculum was removed and the monolayers were overlaid with DMEM containing 2% FBS and the specified concentrations of the test compound. Virus was next allowed to replicate for 48 hours and then the monolayers were fixed and stained with a solution of 1% crystal violet in 70% ethanol:formalin:acetic acid (20:2:1). Finally, plaques (each representing a single infectious virus particule or plaque forming unit (PFU) were counted and checked microscopically. The results were as follows:
(§4) A procedure similar to that described in Example 3 was conducted to determine the anti-viral activity of the compound of example 2. In the case, however, the concentrations of the test compound used to pretreat the MRC-5 cells were 0 μM, 1 μM, 10 μM, 100 μM and 500 μM, respectively. The following results were obtain on infection and incubation of the treated cells:
The following table illustrates results obtained in inhibition and cytotoxicity studies of herpesvirus replication by the compounds exemplified.

herpesvirus [2] = type: cell-based
Method: The therapeutic index of this compound, i.e. the ratio of its cytotoxicity to its viral toxicity, was determined to be 12.29. The following table illustrates results obtained in inhibition and cytotoxicity studies of herpesvirus replication by the compounds exemplified.

herpes simplex virus = assay: Plaque reduction assay, inhibition of herpesvirus replication by the compound of example 2 (MRC-5 cells); type: cell-based; conditions: for Plaque number: untreated 19
From the text: as §1, §2, §3
as §4, with “cells: […]” for “cells:”

For `COC1CC[C@H](OCCCNC(=N)N)[C@@H](COCCCNC(=N)N)O1` (stereo partly drawn) [Example 1, Methyl-4,6-di-O-propylguanidine-2,3-dideoxy-α,β-D-erythro-hexoside], the Plaque number (HSV-1, strain F; 0.5 μM, HSV-1 strain F) was 18, the Plaque number (HSV-1, strain F; 1 μM, HSV-1 strain F) was 16 and the Plaque number (HSV-1, strain F; 5 μM, HSV-1 strain F) was 6. It also gave a Plaque number (HSV-1, strain F; 10 μM, HSV-1 strain F) of 4, a Plaque number (HSV-1, strain F; 20 μM, HSV-1 strain F) of 1 and an IC50 (HSV-1, strain F; Human alphaherpesvirus 1, HSV-1 strain F, Vero cells, plaque reduction) of 2.6 µM. For the same compound, the “reduction in the replication of herpes simplex virus” value (HSV-1, strain F; concentration of more than 1 μM) was “significant reduction”, the EC50 (herpesvirus [1]) was 2.6 µM and the TI (herpesvirus [2]) was 12.29. The “therapeutic index, ratio of cytotoxicity to viral toxicity” value (herpesvirus [2]) was 12.29.
Work on `N=C(N)NCCCOC[C@H]1OC(OCCCNC(=N)N)CC[C@@H]1OCCCNC(=N)N` (stereo partly drawn) [Example 2, 1,4,6-tri-O-propylguanidine-2,3-dideoxy-hexoside] yielded a Plaque number (herpes simplex virus; 0.5 μM, MRC-5 cells) of 18, a Plaque number (herpes simplex virus; 1 μM, MRC-5 cells) of 16 and a Plaque number (herpes simplex virus; 5 μM, MRC-5 cells) of 11. The Plaque number (herpes simplex virus; 10 μM, MRC-5 cells) was 9, the Plaque number (herpes simplex virus; 20 μM, MRC-5 cells) was 6 and the Plaque number (herpes simplex virus; 50 μM, MRC-5 cells) was 5. For the same compound, the EC50 (herpes simplex virus; MRC5, MRC-5 cells, plaque reduction, read-out: ED50 (the source's name)) was 10.5 µM, the “reduction in the replication of herpes simplex virus” value (herpes simplex virus; concentration of 1 μM or more) was “significant reduction” and the EC50 (herpesvirus [1]) was 10.5 µM. The TI (herpesvirus [2]) was greater than 50 and the “therapeutic index, ratio of cytotoxicity to viral toxicity” value (herpesvirus [2]) was greater than 50.
Work on `CCOC1CC[C@H](OCCCNC(=N)N)[C@@H](COCCCNC(=N)N)O1` (stereo partly drawn) [Example 5, ethyl-4,6-di-O-propylguanidine-2,3-dideoxy-hexoside] yielded an EC50 (herpesvirus [1]) of 2.5 µM and a TI (herpesvirus [2]) of 9.96.
For `CCOC1CC[C@H](OCCCCCNC(=N)N)[C@@H](COCCCCCNC(=N)N)O1` (stereo partly drawn) [Example 6, ethyl-4,6-di-O-pentylguanidine-2,3-dideoxy-hexoside], the EC50 (herpesvirus [1]) was 9.3 µM and the TI (herpesvirus [2]) was 17.28.
`CC(C)OC1CC[C@H](OCCCCCNC(=N)N)[C@@H](COCCCCCNC(=N)N)O1` (stereo partly drawn) [Example 7, isopropyl-4,6-di-O-pentylguanidine-2,3-dideoxy-D-erythro-hexoside] showed an EC50 (herpesvirus [1]) of 6.45 µM and a TI (herpesvirus [2]) of 5.17.
`CCOCCOCCOC1CC[C@H](OCCCNC(=N)N)[C@@H](COCCCNC(=N)N)O1` (stereo partly drawn) [Example 8, (ethoxy-ethoxy-ethyl)-4,6-di-O-propylguanidine-2,3-dideoxy-d-erythrohexoside] gave an EC50 (herpesvirus [1]) of 10 µM and a TI (herpesvirus [2]) greater than 20.
For `N=C(N)NCCCOC[C@H]1OCCC[C@@H]1OCCCNC(=N)N` [Example 9, 4,6-di-O-propylguanidine-3-deoxy dihydro-D-glucal], the EC50 (herpesvirus [1]) was roughly 50 µM and the TI (herpesvirus [2]) was ~ 350.
Compound `N=C(N)NCCCOC[C@H]1OC(OCCO)CC[C@@H]1OCCCNC(=N)N` (stereo partly drawn) [Example 10, hydroxyethyl-4,6-di-O-propylguanidine-2,3-dideoxy-hexoside] has an EC50 (herpesvirus [1]) of 10.8 µM and a TI (herpesvirus [2]) of 31.22.
